This experiment has as its system insulin resistant rats. The experiment in a line: Euglycemic insulin clamp in High Fat Diet fed insulin resistant rats after a single oral dose. To be noted: for EGP (endogenous glucose production) / GIR (glucose infusion rate) / GU (glucose utilization): 4 hrs before clamp, mean ± sem. Format: in vivo, Male Wistar rats. The method, then:
Male Wistar rats were fed a High Fat Diet for at least 4 weeks. Jugular vein and carotid artery cannulations were performed one week prior to the clamp experiment. Test compound (Compound 15) is administered p.o. 4 hrs before the clamp and labeled 3-3H-glucose is infused 1 hr prior to calculated endogenous glucose production (EGP). Insulin is infused at a rate of 0.75 U/kg/hr raising plasma insulin levels to […]. To maintain euglycemia (80 mg/dl), unlabeled glucose is infused at a variable rate and adjusted every 10 minutes.

With `CCc1ccc(-c2sc(NC(=O)c3ccc(S(=O)(=O)N[C@@H](Cc4ccccc4)C(=O)O)cc3)nc2-c2ccc(Cl)cc2)cc1` [Compound 15, N-{[4-({[4-(4-chlorophenyl)-5-(4-ethylphenyl)-1,3-thiazol-2-yl]amino}carbonyl)phenyl]sulfonyl}phenylalanine], for the setting “10 mg/kg single oral dose”, the “EGP (endogenous glucose production)” value was determined as 1.4 ± 1.8 mg/kg/min, the “GIR (glucose infusion rate)” value was 29.6 ± 5.0 mg/kg/min and the “GU (glucose utilization)” value amounted to 28.3 ± 6.6 mg/kg/min. Besides, for the setting “30 mg/kg p.o., result in words”, the “effect on endogenous glucose production (EGP)” value is reported as “enhanced suppression”, the “effect on glucose infusion rate (GIR)” value is listed as “significantly increased” and the “effect on glucose utilization (GU)” value is “augmented stimulation”. Where the note is “30 mg/kg single oral dose”, the “EGP (endogenous glucose production)” value came to 0.16 ± 0.5 mg/kg/min, the “GIR (glucose infusion rate)” value is given as 30.8 ± 2.2 mg/kg/min and the “GU (glucose utilization)” value stood at 30.7 ± 2.00 mg/kg/min. Also, where the note is “60 mg/kg single oral dose”, the “EGP (endogenous glucose production)” value worked out at 0.77 ± 0.4 mg/kg/min, the “GIR (glucose infusion rate)” value was 38.0 ± 2.2 mg/kg/min and the “GU (glucose utilization)” value was determined as 37.3 ± 2.3 mg/kg/min.
